Test results taken from ChEMBL document CHEMBL3885881, “DrugMatrix”.

Species on record: Rattus norvegicus
Experiment: DrugMatrix - Regimen: Daily Repeat
Assay type: toxicity, organism-based, Sprague-Dawley
Design: regimen Daily Repeat, gender Male, age 6-8 weeks
Settings: in vivo, po, route oral GAVAGE, vehicle 100 % WATER; for ABSOLUTE BASOPHIL / ABSOLUTE EOSINOPHIL / ABSOLUTE LYMPHOCYTE / ABSOLUTE MONOCYTE / ABSOLUTE SEGMENTED NEUTROPHIL / BASOPHIL / EOSINOPHIL / ERYTHROCYTE COUNT / HEMATOCRIT / HEMOGLOBIN / LEUKOCYTE COUNT / LYMPHOCYTE / MEAN CORPUSCULAR HEMOGLOBIN / MEAN CORPUSCULAR HEMOGLOBIN CONCENTRATION / MEAN CORPUSCULAR VOLUME / MONOCYTE / NEUTROPHIL / NUCLEATED RED BLOOD CELLS / PLATELET COUNT: tissue Blood; for ALANINE AMINOTRANSFERASE / ALBUMIN / ALKALINE PHOSPHATASE / ASPARTATE AMINOTRANSFERASE / BLOOD UREA NITROGEN / CARBON DIOXIDE / CHLORIDE / CHOLESTEROL / CREATINE PHOSPHOKINASE / CREATININE / GLUCOSE / LACTATE DEHYDROGENASE / LIPASE / PHOSPHORUS / POTASSIUM / SODIUM / TOTAL BILIRUBIN / TOTAL PROTEIN / URIC ACID: tissue Plasma
[1] = 5 mg/kg, 120 h, dose level Low, time 5 day
[2] = 500 mg/kg, 72 h, dose level High, time 3 day
[3] = 500 mg/kg, 120 h, dose level High, time 5 day

In the case of `COc1cc2nc(N3CCN(C(=O)C4COc5ccccc5O4)CC3)nc(N)c2cc1OC` (centres undefined) [DOXAZOSIN], the “ABSOLUTE BASOPHIL” value [1] is reported as 0 CELLS/uL, the “ABSOLUTE EOSINOPHIL” value [1] is reported as 0 CELLS/uL and the “ABSOLUTE LYMPHOCYTE” value [1] is reported as 9952.67 CELLS/uL. The “ABSOLUTE MONOCYTE” value [1] was 136 CELLS/uL, the “ABSOLUTE SEGMENTED NEUTROPHIL” value [1] was 844.67 CELLS/uL and the BASOPHIL [1] was 0%. For the same compound, the EOSINOPHIL [1] was 0%, the “ERYTHROCYTE COUNT” value [1] was 5.87 x10E6/uL and the HEMATOCRIT [1] was 36.6%. The HEMOGLOBIN [1] was 13.9 G/DL, the “LEUKOCYTE COUNT” value [1] was 10.93 x10E3/uL and the LYMPHOCYTE [1] was 91%. For the same compound, the “MEAN CORPUSCULAR HEMOGLOBIN” value [1] was 23.73 pg, the “MEAN CORPUSCULAR HEMOGLOBIN CONCENTRATION” value [1] was 37.97 G/DL and the “MEAN CORPUSCULAR VOLUME” value [1] was 62.47 fL. For the same compound, the MONOCYTE [1] was 1.33%, the NEUTROPHIL [1] was 7.67% and the “NUCLEATED RED BLOOD CELLS” value [1] was 0 /100WBC. For the same compound, the “PLATELET COUNT” value [1] was 1169.67 x10E3/uL, the “ALANINE AMINOTRANSFERASE” value [1] was 54.67 u/L and the ALBUMIN [1] was 4.07 G/DL. For the same compound, the “ALKALINE PHOSPHATASE” value [1] was 345.67 u/L, the “ASPARTATE AMINOTRANSFERASE” value [1] was 85.33 u/L and the “BLOOD UREA NITROGEN” value [1] was 17.67 mg/dL. The “CARBON DIOXIDE” value [1] was 33 mmol/L, the CHLORIDE [1] was 101.67 MEQ/L and the CHOLESTEROL [1] was 70.33 mg/dL. For the same compound, the “CREATINE PHOSPHOKINASE” value [1] was 283.33 u/L, the CREATININE [1] was 0.19 mg/dL and the GLUCOSE [1] was 123 mg/dL. The “LACTATE DEHYDROGENASE” value [1] was 105 u/L, the LIPASE [1] was 11.33 u/L and the PHOSPHORUS [1] was 11.23 mg/dL. The POTASSIUM [1] was 6.38 MEQ/L, the SODIUM [1] was 145.93 MEQ/L and the “TOTAL BILIRUBIN” value [1] was 0.17 mg/dL. The “TOTAL PROTEIN” value [1] was 6.07 G/DL, the “URIC ACID” value [1] was 1.13 mg/dL and the “ABSOLUTE BASOPHIL” value [2] was 0 CELLS/uL. The “ABSOLUTE EOSINOPHIL” value [2] was 73 CELLS/uL, the “ABSOLUTE LYMPHOCYTE” value [2] was 6631.33 CELLS/uL and the “ABSOLUTE MONOCYTE” value [2] was 53.67 CELLS/uL. The “ABSOLUTE SEGMENTED NEUTROPHIL” value [2] was 808.67 CELLS/uL, the BASOPHIL [2] was 0% and the EOSINOPHIL [2] was 1.33%. For the same compound, the “ERYTHROCYTE COUNT” value [2] was 5.62 x10E6/uL, the HEMATOCRIT [2] was 34.87% and the HEMOGLOBIN [2] was 13.47 G/DL. For the same compound, the “LEUKOCYTE COUNT” value [2] was 7.57 x10E3/uL, the LYMPHOCYTE [2] was 85.33% and the “MEAN CORPUSCULAR HEMOGLOBIN” value [2] was 23.97 pg. For the same compound, the “MEAN CORPUSCULAR HEMOGLOBIN CONCENTRATION” value [2] was 38.63 G/DL, the “MEAN CORPUSCULAR VOLUME” value [2] was 62.07 fL and the MONOCYTE [2] was 1%. The NEUTROPHIL [2] was 12.33%, the “NUCLEATED RED BLOOD CELLS” value [2] was 0 /100WBC and the “PLATELET COUNT” value [2] was 1290.67 x10E3/uL. For the same compound, the “ALANINE AMINOTRANSFERASE” value [2] was 66 u/L, the ALBUMIN [2] was 4.03 G/DL and the “ALKALINE PHOSPHATASE” value [2] was 327 u/L. For the same compound, the “ASPARTATE AMINOTRANSFERASE” value [2] was 79 u/L, the “BLOOD UREA NITROGEN” value [2] was 14.33 mg/dL and the “CARBON DIOXIDE” value [2] was 29.67 mmol/L. For the same compound, the CHLORIDE [2] was 100.33 MEQ/L, the CHOLESTEROL [2] was 97.33 mg/dL and the “CREATINE PHOSPHOKINASE” value [2] was 248 u/L. For the same compound, the CREATININE [2] was 0.21 mg/dL, the GLUCOSE [2] was 140.67 mg/dL and the “LACTATE DEHYDROGENASE” value [2] was 232.33 u/L. It also gave an LIPASE [2] of 10.33 u/L, a PHOSPHORUS [2] of 10.53 mg/dL and a POTASSIUM [2] of 5.08 MEQ/L. For the same compound, the SODIUM [2] was 143.17 MEQ/L, the “TOTAL BILIRUBIN” value [2] was 0.37 mg/dL and the “TOTAL PROTEIN” value [2] was 6.17 G/DL. For the same compound, the “URIC ACID” value [2] was 0.67 mg/dL, the “ABSOLUTE BASOPHIL” value [3] was 0 CELLS/uL and the “ABSOLUTE EOSINOPHIL” value [3] was 121 CELLS/uL. The “ABSOLUTE LYMPHOCYTE” value [3] was 10491.67 CELLS/uL, the “ABSOLUTE MONOCYTE” value [3] was 80.67 CELLS/uL and the “ABSOLUTE SEGMENTED NEUTROPHIL” value [3] was 940 CELLS/uL. The BASOPHIL [3] was 0%, the EOSINOPHIL [3] was 1% and the “ERYTHROCYTE COUNT” value [3] was 5.32 x10E6/uL. The HEMATOCRIT [3] was 33.53%, the HEMOGLOBIN [3] was 13.03 G/DL and the “LEUKOCYTE COUNT” value [3] was 11.63 x10E3/uL. For the same compound, the LYMPHOCYTE [3] was 90.33%, the “MEAN CORPUSCULAR HEMOGLOBIN” value [3] was 24.5 pg and the “MEAN CORPUSCULAR HEMOGLOBIN CONCENTRATION” value [3] was 38.93 G/DL. For the same compound, the “MEAN CORPUSCULAR VOLUME” value [3] was 62.93 fL, the MONOCYTE [3] was 0.67% and the NEUTROPHIL [3] was 8%. For the same compound, the “NUCLEATED RED BLOOD CELLS” value [3] was 0.33 /100WBC, the “PLATELET COUNT” value [3] was 350.67 x10E3/uL and the “ALANINE AMINOTRANSFERASE” value [3] was 64 u/L. The ALBUMIN [3] was 3.8 G/DL, the “ALKALINE PHOSPHATASE” value [3] was 343 u/L and the “ASPARTATE AMINOTRANSFERASE” value [3] was 99.33 u/L. For the same compound, the “BLOOD UREA NITROGEN” value [3] was 18.33 mg/dL, the “CARBON DIOXIDE” value [3] was 30.67 mmol/L and the CHLORIDE [3] was 102 MEQ/L. The CHOLESTEROL [3] was 54.67 mg/dL, the “CREATINE PHOSPHOKINASE” value [3] was 485.67 u/L and the CREATININE [3] was 0.29 mg/dL. The GLUCOSE [3] was 141.33 mg/dL, the “LACTATE DEHYDROGENASE” value [3] was 106.67 u/L and the LIPASE [3] was 9.67 u/L. It also gave a PHOSPHORUS [3] of 10.73 mg/dL, a POTASSIUM [3] of 5.43 MEQ/L and an SODIUM [3] of 145.97 MEQ/L. The “TOTAL BILIRUBIN” value [3] was 0.2 mg/dL, the “TOTAL PROTEIN” value [3] was 5.37 G/DL and the “URIC ACID” value [3] was 0.83 mg/dL.
